# Test system: adhesion formation
# Assay: Adhesion formation after CO2 laser injury under CO2 or CO2/O2 pneumoperitoneum, scored at second-look laparoscopy after one week
# Type: in vivo, New Zealand white rabbits
# Design: key to Mean total adhesion score: sum of extent (0-4), type (0-3), tenacity (0-3), inflammation (0-3)
# Procedure: All animals received two standard CO2 laser injuries. A non opposing lesion was inflicted in the retro-uterine space, i.e. on the posterior utero-vaginal wall, consisting of a 2 cm^2; vaporization of the superficial layers with CO2 laser. In addition, an apposing lesion was performed in the oviduct and pelvic side wall, consisting of a 2 cm^2 vaporization, on both sides. The time required to induce the lesions varied from 3 to 7 minutes.
# Animals were assigned randomly on a daily base, to one of the following seven experimental groups. First and second groups were considered control groups. In group 1, using conventional CO2 pneumoperitoneum, the total duration of the procedure was restricted to 10 minutes.
# Adhesions were evaluated by laparoscopy after one week. All second look laparoscopies were videotaped, and subsequently scored blindly by two investigators, taking into account extent (0 to 4 points), type (0 to 3 points), tenacity (0 to 3 points) and inflammatory reaction (0 to 3 points) at the injury and at de-novo siteds.
# Sixty five New Zealand white rabbits weighing between 2150 and 3000 grams were operated with a standard 3 puncture laparoscopy. Standard surgical injuries were inflicted with CO2 laser (Sharplan 1060: Sharplan, Tel Aviv, Israel) with a spot diameter of 1 mm and a power setting of 10 watts in the continuous superpulse mode. […] The output of both insufflators was mixed in a mixing chamber, humidified and warmed. The insufflation pressure was 10 cm of water and the intra-abdominal flow rate 20 l/min. It is obvious that all means in contact with O2 are adapted therefor.
smiles,measurement,setting,value
"O=C=O [CO2, carbon dioxide, reference compound]","P of difference in total adhesion score versus control group with 100% CO2 (Group 2, 60′ CO2)",10′ CO2 (group 1),P = 0.0002
same,Mean total adhesion score,"group 1: pure CO2 pneumoperitoneum, procedure restricted to 10 minutes",4.5±3.7
same,Mean total adhesion score,group 2: pure CO2 pneumoperitoneum maintained 70 minutes,17.5±6.7
same,"Increase of adhesion scores, 60 min exposure in comparison with 10 min exposure","pure CO2, 60 min vs 10 min",4 fold
"O=O [O2, oxygen]","P of difference in total adhesion score versus control group with 100% CO2 (Group 2, 60′ CO2)",60′ 2.5% O2 (group 4),P = 0.05
same,"P of difference in total adhesion score versus control group with 100% CO2 (Group 2, 60′ CO2)",60′ 5% O2 (group 5),P = 0.0005
same,"P of difference in total adhesion score versus control group with 100% CO2 (Group 2, 60′ CO2)",60′ 10% O2 (group 6),P = 0.007
same,"P of difference in total adhesion score versus control group with 100% CO2 (Group 2, 60′ CO2)",60′ 20% O2 (group 7),P = 0.005
same,P of decrease in total adhesion score with the addition of O2,de novo adhesions around the opposite tube,0.0001
same,Adhesiogenic effect of CO2,"from a final concentration of 5% oxygen onwards, together with CO2",completely abolished
same,Mean total adhesion score,"group 3: CO2 with 1% O2, pneumoperitoneum 70 minutes",15.8±5.2
same,Mean total adhesion score,"group 5: CO2 with 5% O2, pneumoperitoneum 70 minutes",5.3±3.8
same,Mean total adhesion score,"group 6: CO2 with 10% O2, pneumoperitoneum 70 minutes",6.6±4.4
same,Mean total adhesion score,"group 7: CO2 with 20% O2, pneumoperitoneum 70 minutes",6.3±2.5
same,Amount of adhesions,increasing concentrations of oxygen in CO2 pneumoperitoneum,decreased progressively
same,P of decrease in total adhesion score with the addition of O2,non opposing lesion in the pouch of Douglas,0.0002
same,P of decrease in total adhesion score with the addition of O2,opposing lesion in tube/side wall,0.0014

# Reference: patent US7073512B2, “Adhesion prevention and an endoscopic insufflation system therefor” (Saturnus AG, priority 1997, dated 2006)
